Data as given in PMC6159918 (Peptides, 2018).
Where two headings read alike, the source gives them in different places.

Legend:
human BRS-3-receptor [1] = target: T1, human BRS-3-receptor (Homo sapiens, UniProt P32247); assay: Cytosolic Ca2+; format: cell-based; conditions: MK-5046 10 nM
T1 sequence (P32247 1-399): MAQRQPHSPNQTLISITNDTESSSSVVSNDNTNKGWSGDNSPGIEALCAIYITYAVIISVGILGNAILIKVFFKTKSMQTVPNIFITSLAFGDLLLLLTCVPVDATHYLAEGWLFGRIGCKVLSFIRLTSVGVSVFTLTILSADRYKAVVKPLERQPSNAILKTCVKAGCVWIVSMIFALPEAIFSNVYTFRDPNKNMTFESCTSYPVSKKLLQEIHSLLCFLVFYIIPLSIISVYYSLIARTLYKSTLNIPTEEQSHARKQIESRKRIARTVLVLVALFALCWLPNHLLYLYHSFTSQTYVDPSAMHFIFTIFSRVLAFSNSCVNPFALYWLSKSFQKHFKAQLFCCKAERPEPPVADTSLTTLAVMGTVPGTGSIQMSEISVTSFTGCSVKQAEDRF

human BRS-3-receptor [2] = target: T1, human BRS-3-receptor; assay: [3H]-inositol phosphates; format: cell-based; conditions: for EC50: EC50, release of [3H]IP; for [3H]IP (Exp/control) / [3H]IP (DPM): MK-5046 10 nM
BRS-3/Balb cells = conditions: 24 h serum-free, Balb-3T3 BRS-3-transfected
human lung-cancer cells = assay: cells; format: cell-based; conditions: for EC50: Homo sapiens; for [3H]-Thymidine Incorporation (Exp/control): 24 h serum-free
human BRS-3-receptor [3] = target: T1, human BRS-3-receptor; assay: p42/44 MAPK phosphorylation; format: cell-based; conditions: for EC50: EC50, p42/44 phosphorylation; for P-p42/44 (Exp/control): MK-5046 10 nM, 3 min

O[C@@](Cc1nc(CC2(C(F)(F)F)CC2)c[nH]1)(c1ccc(-n2cccn2)cc1)C(F)(F)F [MK-5046, (2S)-1,1,1-trifluoro-2-[4-(1H-pyrazol-1-yl)phenyl]-3-(4-[[1-(trifluoromethyl)cyclopropyl]methyl]-1H-imidazol-2-yl)propan-2-ol]
Ca2+ release (% over basal) (human BRS-3-receptor [1]; Balb-3T3 BRS-3 transfected): 7.43 ± 1.22 % over basal
Ca2+ release (% over basal) (human BRS-3-receptor [1]; NCI-H69 (SCLC)): 3.09 ± 0.67 % over basal
Ca2+ release (% over basal) (human BRS-3-receptor [1]; NCI-H82 (SCLC)): 9.00 ± 1.11 % over basal
Ca2+ release (% over basal) (human BRS-3-receptor [1]; NCI-H358 (NSCLC)): 1.65 ± 0.43 % over basal
Ca2+ release (% over basal) (human BRS-3-receptor [1]; NCI-H460 (NSCLC)): 5.77 ± 1.41 % over basal
Ca2+ release (% over basal) (human BRS-3-receptor [1]; NCI-H510 (SCLC)): 2.94 ± 0.52 % over basal
Ca2+ release (% over basal) (human BRS-3-receptor [1]; NCI-H520 (NSCLC)): 2.60 ± 0.40 % over basal
Ca2+ release (% over basal) (human BRS-3-receptor [1]; NCI-H720 (carcinoid)): 2.40 ± 0.28 % over basal
Ca2+ release (% over basal) (human BRS-3-receptor [1]; NCI-H727 (carcinoid)): 6.26 ± 1.43 % over basal
Ca2+ release (% over basal) (human BRS-3-receptor [1]; NCI-H1299 BRS-3 transfected): 8.04 ± 0.55 % over basal
Ca2+ release (% over basal) (human BRS-3-receptor [1]; NCI-N417 (SCLC)): 4.40 ± 0.62 % over basal
greatest [3H]IP-increase in IP-production (human BRS-3-receptor [2]; BRS-3/H1299-cells): 8 fold
EC50 (human BRS-3-receptor [2]; BRS-3/H1299 cells): 0.37 ± 0.04 nM
EC50 (human BRS-3-receptor [2]; NCI-H69 cells): 3.29 ± 0.54 nM
EC50 (human BRS-3-receptor [2]; NCI-H720 cells): 0.14 ± 0.05 nM
decrease in [3H]IP-release at supramaximal concentrations (human BRS-3-receptor [2]; H720 cells, p < 0.05): 28%
[3H]IP (Exp/control) (human BRS-3-receptor [2]; Balb-3T3 BRS-3 transfected): 7.50 ± 0.68 Exp/control
[3H]IP (DPM) (human BRS-3-receptor [2]; Balb-3T3 BRS-3 transfected, control 2487 ± 185): 18657 ± 1698 DPM
[3H]IP (Exp/control) (human BRS-3-receptor [2]; NCI-H69 (SCLC)): 3.38 ± 0.17 Exp/control
[3H]IP (DPM) (human BRS-3-receptor [2]; NCI-H69 (SCLC), control 177 ± 27): 597 ± 29 DPM
[3H]IP (Exp/control) (human BRS-3-receptor [2]; NCI-H82 (SCLC)): 2.09 ± 0.33 Exp/control
[3H]IP (Exp/control) (human BRS-3-receptor [2]; NCI-H358 (NSCLC)): 1.50 ± 0.15 Exp/control
[3H]IP (Exp/control) (human BRS-3-receptor [2]; NCI-H460 (NSCLC)): 1.63 ± 0.18 Exp/control
[3H]IP (Exp/control) (human BRS-3-receptor [2]; NCI-H510 (SCLC)): 1.12 ± 0.05 Exp/control
[3H]IP (Exp/control) (human BRS-3-receptor [2]; NCI-H520 (NSCLC)): 1.84 ± 0.36 Exp/control
[3H]IP (Exp/control) (human BRS-3-receptor [2]; NCI-H720 (carcinoid)): 1.64 ± 0.22 Exp/control
[3H]IP (Exp/control) (human BRS-3-receptor [2]; NCI-H727 (carcinoid)): 2.59 ± 0.22 Exp/control
[3H]IP (DPM) (human BRS-3-receptor [2]; NCI-H727 (carcinoid), control 143 ± 21): 371 ± 32 DPM
[3H]IP (Exp/control) (human BRS-3-receptor [2]; NCI-H1299 BRS-3 transfected): 7.63 ± 0.77 Exp/control
[3H]IP (Exp/control) (human BRS-3-receptor [2]; NCI-N417 (SCLC)): 4.31 ± 1.03 Exp/control
[3H]IP (DPM) (human BRS-3-receptor [2]; NCI-N417 (SCLC), control 660 ± 87): 2850 ± 571 DPM
maximal stimulated [3H]IP value (human BRS-3-receptor [2]; NCI-H69 cells, 100 nM MK-5046, control 177 ± 27 dpm): 834 ± 66 dpm
maximal stimulated [3H]IP value (human BRS-3-receptor [2]; NCI-H720 cells, 10 nM MK-5046, control 268 ± 23 dpm): 375 ± 31 dpm
maximal stimulated [3H]IP value (human BRS-3-receptor [2]; hBRS-3-NCI-H1299 cells, 100 nM MK-5046, control 1169 ± 88 dpm): 10,144 ± 1310 dpm
[3H]-Thymidine Incorporation (Exp/control) (BRS-3/Balb cells; MK-5046 10 nM): 1.00 ± 0.04 Exp/control
[3H]-Thymidine Incorporation (Exp/control) (BRS-3/Balb cells; MK-5046 1 μM): 1.24 ± 0.07 Exp/control
EC50 (human lung-cancer cells; NCI-H69, read-out: EC50, [3H]-Thymidine-uptake): 0.27 ± 0.06 nM
EC50 (human lung-cancer cells; NCI-H358, read-out: EC50, [3H]-Thymidine-uptake): 0.52 ± 0.07 nM
EC50 (human lung-cancer cells; NCI-H727, read-out: EC50, [3H]-Thymidine-uptake): 0.31 ± 0.06 nM
[3H]-Thymidine Incorporation (Exp/control) (human lung-cancer cells; MK-5046 10 nM, NCI-H69): 1.36 ± 0.09 Exp/control
[3H]-Thymidine Incorporation (Exp/control) (human lung-cancer cells; MK-5046 10 nM, NCI-H82): 1.08 ± 0.08 Exp/control
[3H]-Thymidine Incorporation (Exp/control) (human lung-cancer cells; MK-5046 10 nM, NCI-H358): 1.20 ± 0.05 Exp/control
[3H]-Thymidine Incorporation (Exp/control) (human lung-cancer cells; MK-5046 10 nM, NCI-H460): 1.29 ± 0.07 Exp/control
[3H]-Thymidine Incorporation (Exp/control) (human lung-cancer cells; MK-5046 10 nM, NCI-H510): 1.39 ± 0.04 Exp/control
[3H]-Thymidine Incorporation (Exp/control) (human lung-cancer cells; MK-5046 10 nM, NCI-H520): 1.27 ± 0.10 Exp/control
[3H]-Thymidine Incorporation (Exp/control) (human lung-cancer cells; MK-5046 10 nM, NCI-H720): 1.15 ± 0.04 Exp/control
[3H]-Thymidine Incorporation (Exp/control) (human lung-cancer cells; MK-5046 10 nM, NCI-H727): 1.41 ± 0.18 Exp/control
[3H]-Thymidine Incorporation (Exp/control) (human lung-cancer cells; MK-5046 10 nM, NCI-H1299 BRS-3-transfected): 1.41 ± 0.06 Exp/control
[3H]-Thymidine Incorporation (Exp/control) (human lung-cancer cells; MK-5046 10 nM, NCI-N417): 1.29 ± 0.08 Exp/control
[3H]-Thymidine Incorporation (Exp/control) (human lung-cancer cells; MK-5046 1 μM, NCI-H69): 0.76 ± 0.07 Exp/control
[3H]-Thymidine Incorporation (Exp/control) (human lung-cancer cells; MK-5046 1 μM, NCI-H82): 1.17 ± 0.05 Exp/control
[3H]-Thymidine Incorporation (Exp/control) (human lung-cancer cells; MK-5046 1 μM, NCI-H358): 1.15 ± 0.06 Exp/control
[3H]-Thymidine Incorporation (Exp/control) (human lung-cancer cells; MK-5046 1 μM, NCI-H460): 1.07 ± 0.07 Exp/control
[3H]-Thymidine Incorporation (Exp/control) (human lung-cancer cells; MK-5046 1 μM, NCI-H510): 1.36 ± 0.10 Exp/control
[3H]-Thymidine Incorporation (Exp/control) (human lung-cancer cells; MK-5046 1 μM, NCI-H520): 1.07 ± 0.14 Exp/control
[3H]-Thymidine Incorporation (Exp/control) (human lung-cancer cells; MK-5046 1 μM, NCI-H720): 1.17 ± 0.03 Exp/control
[3H]-Thymidine Incorporation (Exp/control) (human lung-cancer cells; MK-5046 1 μM, NCI-H727): 1.47 ± 0.16 Exp/control
[3H]-Thymidine Incorporation (Exp/control) (human lung-cancer cells; MK-5046 1 μM, NCI-H1299 BRS-3-transfected): 1.27 ± 0.11 Exp/control
[3H]-Thymidine Incorporation (Exp/control) (human lung-cancer cells; MK-5046 1 μM, NCI-N417): 1.26 ± 0.07 Exp/control
decrease in [3H]-Thymidine-uptake at supramaximal concentrations (human lung-cancer cells; NCI-H69-cells): 87%
decrease in [3H]-Thymidine-uptake at supramaximal concentrations (human lung-cancer cells; NCI-H358-cells): 23%
dose-response curve shape, p42/44 phosphorylation (human BRS-3-receptor [3]; BRS-3/H1299-transfected-cells): monophasic
EC50 (human BRS-3-receptor [3]; BRS-3/H1299-cells): 1.9 ± 0.16 nM
EC50 (human BRS-3-receptor [3]; NCI-H69): 0.12 ± 0.01 nM
EC50 (human BRS-3-receptor [3]; NCI-H82): 1.08 ± 0.16 nM
EC50 (human BRS-3-receptor [3]; NCI-H720): 1.14 ± 0.57 nM
EC50 (human BRS-3-receptor [3]; NCI-H727): 0.02 ± 0.01 nM
EC50 (human BRS-3-receptor [3]; NCI-N417): 0.02 ± 0.01 nM
P-p42/44 (Exp/control) (human BRS-3-receptor [3]; Balb-3T3 BRS-3 transfected): 1.85 ± 0.21 Exp/control
P-p42/44 (Exp/control) (human BRS-3-receptor [3]; NCI-H69 (SCLC)): 1.95 ± 0.18 Exp/control
P-p42/44 (Exp/control) (human BRS-3-receptor [3]; NCI-H82 (SCLC)): 1.50 ± 0.10 Exp/control
P-p42/44 (Exp/control) (human BRS-3-receptor [3]; NCI-H358 (NSCLC)): 2.33 ± 0.34 Exp/control
P-p42/44 (Exp/control) (human BRS-3-receptor [3]; NCI-H460 (NSCLC)): 1.07 ± 0.16 Exp/control
P-p42/44 (Exp/control) (human BRS-3-receptor [3]; NCI-H510 (SCLC)): 2.22 ± 0.13 Exp/control
P-p42/44 (Exp/control) (human BRS-3-receptor [3]; NCI-H520 (NSCLC)): 1.88 ± 0.24 Exp/control
P-p42/44 (Exp/control) (human BRS-3-receptor [3]; NCI-H720 (carcinoid)): 2.53 ± 0.39 Exp/control
P-p42/44 (Exp/control) (human BRS-3-receptor [3]; NCI-H727 (carcinoid)): 2.41 ± 0.34 Exp/control
P-p42/44 (Exp/control) (human BRS-3-receptor [3]; NCI-H1299 BRS-3 transfected): 1.54 ± 0.28 Exp/control
P-p42/44 (Exp/control) (human BRS-3-receptor [3]; NCI-N417 (SCLC)): 1.64 ± 0.25 Exp/control
decrease in p42/44-phosphorylation at supramaximal concentrations (human BRS-3-receptor [3]; NCI-H82-cells, p < 0.002): 50 ± 7%
decrease in p42/44-phosphorylation at supramaximal concentrations (human BRS-3-receptor [3]; NCI-H727-cells, p < 0.0001): 49 ± 9%
decrease in p42/44-phosphorylation at supramaximal concentrations (human BRS-3-receptor [3]; NCI-N417, p < 0.0001): 29 ± 6%
dose-response curve shape, p42/44 phosphorylation (human BRS-3-receptor [3]; all the cells (NCI-H727, NCI-H720, NCI-H69, NCI-H82, NCI-N417) except BRS-3/H1299): biphasic
Emax at 1 µM (human BRS-3-receptor [3]; read-out: maximal stimulation of p42/44-MAPK phosphorylation): 96 ± 7%
